What was measured:
[1] = Infusion into human subjects with Class III NYHA congestive heart failure; format: in vivo, humans; conditions: for hypotension: human, in vivo
Experimental: Human proANF's 1-30, 31-67, 79-98, and 99-126 (i.e., ANF) were infused into human subjects with Class III New York Heart Association congestive heart failure (CHF). An identical protocol to that used in example V where these peptides were infused into healthy human subjects was utilized. (See Attachment C and F for a detailed description of this protocol). The human subjects with congestive heart failure received an identical dose (0.1 μg/kg body wt/minute for 60 minutes) that the healthy human subjects received. […] This striking urine output secondary to proANF 31-67 was significant at P<0.0001 compared to the pre-infusion output of the congestive heart failure subjects (n=6).

[2] = system: renal medullary Na+-K+-ATPase; experiment: Inhibition of renal medullary Na+-K+-ATPase activity (FIG. 9); format: biochemical; conditions: for inhibition of renal medullary Na+-K+-ATPase activity: 10^-11 M, n=6, ANOVA
From the text: FIG. 9. Inhibition of renal medullary Na+-K+-ATPase activity by proANF 79-98 (kaliuretic peptide), proANF 1-30 (long acting natriuretic peptide), proANF 31-67 (vessel dilator), and angiotensin II at their […] concentrations.

porcine aortas = experiment: Vasodilation of porcine aortic strips preconstricted with 0.3 micromolar phenylephrine
Experimental: 30 Kg pigs are sacrificed, and aortic strips are harvested. The strips are attached to F-60 transducer (Narco-BioSystems, Houston, Tex.) and attached to a physiography (Narco-BioSystems) while being submerged in a muscle tissue bath comprising a Krebs Ringer solution at 37° C., with 95% O2-5% CO2, bubbled through the bath. Percentage vasodilation is measured versus time after preconstriction with 0.3 micromolar phenylephrine. […] (Vesely et al., Biochem. Biophys. Res. Commun. 148:1540-1548, 1987).

[3] = system: prostaglandin E2 (PGE2) synthesis; experiment: Prostaglandin E2 synthesis (FIG. 8); format: biochemical; conditions: n=6, ANOVA and Duncan's MRT
[4] = Infusion into healthy human subjects; format: in vivo; conditions: healthy humans
Experimental: Infusion of these peptides into healthy human subjects was performed as follows: Human pro-ANF 1-30, pro-ANF 31-67, and pro-ANF 79-98, and hANF (i.e., pro-ANF 99-126, were synthesized by Peninsula Laboratories (Belmont, Calif.). High pressure liquid chromatography (HPLC) analysis was performed on a sample of each of the four peptides to ensure purity. The peptides were dissolved in a sterile 0.9% saline solution to a concentration of 100 μg/ml and dispensed in 2 and 5 ml aliquots into sealed sterile vials. At the time of dispensing, randomly selected vials were tested for pyrogens and sterility. Prior to labeling the vials, the actual peptide content of the dispensed solution were determined by direct radioimmunoassay to account for any possible absorption of the respective peptides to the walls of the vials. All vials were then stored at −80° C. until thawed for individual study.
Normal healthy subjects were chosen on the basis of age (between 20 and 50 years), physical examination and biochemical screenings. The subjects consumed their normal diets prior to testing. The subjects fasted overnight and were tested in the morning in the seated position. Intravenous catheters were placed bilaterally for the administration of pro-hANF 1-30, pro-hANF 31-67, pro-hANF 79-98 and hANF (pro-hANF 99-126) and for blood sampling. After completion of a 45-minute equilibration period, there were three […] phases of the study: baseline, experimental infusion (60 minutes) and recovery (3 hours). The baseline phase consisted of two 30 minute urine collection periods, the experimental phase consisted of three 20 minute urine and plasma collection periods, and the recovery phase consisted of two 30 minute urine and plasma collection periods each hour for three hours post-infusion. Urine output was replaced on a milliliter per milliliter basis throughout the study by administering oral water or orange juice. Urine samples were obtained by voiding at the designated collection periods.
The 36 subjects were divided into 6 groups. One group (i.e., the control group) received a placebo infusion of 0.9% sodium chloride during the experimental infusion phase. […] The four remaining groups of six subjects each received human pro-hANF 1-30, pro-hANF 31-67, pro-hANF 79-98 and HANF. The four groups received the peptides by continuous infusion at the rate of 0.1 μg/kg per minute. The volume administered per hour during the experimental infusion phase was 10 ml for all four peptides and the placebo. All infusions were given by a constant-rate infusion pump, with the final concentrations of prohANFs adjusted for the subjects' body weight. The subjects heart rate and cuff blood pressure were taken at 5 minute intervals throughout the study. The excreted urine was analyzed for sodium concentration.

[5] = system: particulate guanylate cyclase; experiment: Cyclic GMP / particulate guanylate cyclase activation in cultured smooth muscle cells and porcine aorta; format: cell-based
[6] = Rat clearance model (diuresis and salt excretion); format: in vivo, Munich-Wistar rats; conditions: means ± SE
Experimental: The same three peptides and ANF from Example I are tested using the rat clearance model. Six control rats and six experimental Munich-Wistar rats, each weighing 150-200 grams, are used for each peptide, with catheters being placed in both jugular veins and in the femoral artery. The ureters are cannulated for simultaneous urine collections with femoral artery blood collections.
After inserting the catheters, a stabilization of one hour is allowed. A 10 μg/kg bolus of each of the respective human sequences of the peptides is given via the jugular vein to six experimental rats followed by a sustaining infusion of 0.1 μg/kg/min for 60 minutes. Blood and urine samples are collected at 20 minute intervals during this 60 minute infusion. In both the control and experimental animals, hematocrits and plasma sodium values remained at the same levels pre- and post-infusion while blood pressure decreased with each of these peptides (see Attachment B).

[7] = system: particulate guanylate cyclase; experiment: Particulate guanylate cyclase activity in the kidney; format: biochemical; conditions: 1 μM; whole kidney homogenates, renal cortical and medullary membranes, isolated distal nephrons
Experimental: Testing is also carried out to determine biologic effects of these peptides by measuring their effects on particulate guanylate activity in the kidney.

[8] = biological target: particulate guanylate cyclase of porcine aorta and cultured smooth muscle cells (porcine)
[9] = A, control period (before peptide)
[10] = B, first 60-minute experiment period, 10 μg/kg bolus then 0.1 μg/kg/min
[11] = C, second 60-minute experimental period

Molecule: CC[C@H](C)[C@@H]1NC(=O)[C@H](CCCNC(=N)N)NC(=O)[C@H](CC(=O)O)NC(=O)[C@H](CCSC)NC(=O)[C@H](CCCNC(=N)N)NC(=O)CNC(=O)CNC(=O)[C@H](Cc2ccccc2)NC(=O)[C@@H](NC(=O)[C@H](CO)NC(=O)[C@H](CO)NC(=O)[C@H](CCCNC(=N)N)NC(=O)[C@H](CCCNC(=N)N)NC(=O)[C@H](CC(C)C)NC(=O)[C@@H](N)CO)CSSC[C@@H](C(=O)N[C@@H](CC(N)=O)C(=O)N[C@@H](CO)C(=O)N[C@@H](Cc2ccccc2)C(=O)N[C@@H](CCCNC(=N)N)C(=O)N[C@@H](Cc2ccc(O)cc2)C(=O)O)NC(=O)CNC(=O)[C@H](CC(C)C)NC(=O)CNC(=O)[C@H](CO)NC(=O)[C@H](CCC(N)=O)NC(=O)[C@H](C)NC(=O)CNC1=O [ANF, reference compound]
- hypotension [1]: became hypotensive

Molecule: COc1ccc2cc([C@H](C)C(=O)O)ccc2c1 [Naproxen, reference compound]
- blockade of the peptides' effects on renal medullary Na+-K+-ATPase ([2]; 0.5 mM): completely blocked

Molecule: H-NPMYNAVSNADLMDFKNLLDHLEEKMPLED-OH [proANF 1-30]
- increase in cyclic GMP levels over baseline levels associated with vasodilation (porcine aortas): four-to-five fold
- prostaglandin E2 (PGE2) synthesis [3]: increase prostaglandin E2 (PGE2) synthesis
- duration of sodium excreting effects compared to ANF [4]: significantly (P<0.001) prolonged compared to ANF
- potassium excretion ([4]; 100 ng/kg body wt): significant (P<0.05)
- increase in urine volume (in words) ([4]; 100 ng/kg body wt per minute for 1 hour i.v., n=6, ANOVA): significant
- sodium excretion (in words) ([4]; 100 ng/kg body wt per minute for 60 minutes, vs baseline): significantly (P<0.05) increased
- systolic and diastolic blood pressures ([4]; 100 ng/kg body wt per minute i.v. for 60 min, n=6): significant
- duration of sodium excreting effects compared to ANF ([4]; listed as ProANF 1-30): last significantly (P<0.001) longer than ANF's effects
- inhibition of renal medullary Na+-K+-ATPase activity [2]: significant at P<0.01
- cyclic GMP levels in cultured smooth muscle cells ([5]; cultured smooth muscle cells): increase cyclic GMP levels
- concentration of maximal activation of guanylate cyclase activity ([5]; porcine aorta and isolated smooth muscle cells): about 1 μM
- EC50 ([5]; porcine aorta and isolated smooth muscle cells, read-out: half maximal activation (ED5o) of guanylate cyclase): ~10 nM
- increase of fractional excretion of sodium ([1]; CHF individuals): 3 fold
- enhancement of sodium excretion ([1]; CHF subjects, 100 ng/kg body weight/min for 60 minutes): three-to-eight fold
- hypotension [1]: None became hypotensive
- time after stopping infusion for which diuresis / urine flow is still significantly elevated (P<0.01) ([1]; humans with congestive heart failure, listed as Pro ANF's 1-30): ≥ 3 h
- FENa, fractional excretion of sodium [6, 9]: 0.023 ± 0.002%
- UNa, urinary sodium [6, 9]: 34.13 ± 10.98 meq/1
- UNaV, urinary sodium excretion rate [6, 9]: 36.37 ± 8.09 μeq · min^−1 · g kidney wt^−1
- V, urine flow rate [6, 9]: 1.83 ± 0.27 μl · min^−1 · g kidney wt^−1
- V, urine flow rate ([6]; B, first 60-minute experiment period, 10 μg/kg bolus then 0.1 μg/kg/min via jugular vein): 3.41 ± 0.48 μl · min^−1 · g kidney wt^−1
- FENa, fractional excretion of sodium [6, 10]: 0.241 ± 0.101%
- UNa, urinary sodium [6, 10]: 64.83 ± 12.93 meq/1
- UNaV, urinary sodium excretion rate [6, 10]: 224.30 ± 60.34 μeq · min^−1 · g kidney wt^−1
- V, urine flow rate ([6]; C, second 60-minute experimental period, 10 μg/kg bolus then 0.1 μg/kg/min): 4.31 ± 0.84 μl · min^−1 · g kidney wt^−1
- FENa, fractional excretion of sodium [6, 11]: 0.285 ± 0.094%
- UNa, urinary sodium [6, 11]: 89.50 ± 19.82 meq/1
- UNaV, urinary sodium excretion rate [6, 11]: 384.98 ± 124.39 μeq · min^−1 · g kidney wt^−1
- particulate guanylate cyclase activity [7]: enhance

Molecule: angiotensin II [reference compound]
- inhibition of renal medullary Na+-K+-ATPase activity [2]: significant at P<0.01

Molecule: human atrial natriuretic factor (ANF) (peptide)
- half maximal activation (ED50) of guanylate cyclase activity [8]: 10 nM

Molecule: H-SSDRSALLKSKLRALLTAPR-OH [human pro-ANF 79-98]
- half maximal activation (ED50) of guanylate cyclase activity [8]: 10 nM

Molecule: H-NPMYNAVSNADLMDFKNLLDHLEEKMPLED-OH [human pro-ANF 1-30]
- half maximal activation (ED50) of guanylate cyclase activity [8]: 10 nM

Molecule: H-EVVPPQVLSEPNEEAGAALSPLPEVPPWTGEVSPAQR-OH [human pro-ANF 31-67]
- half maximal activation (ED50) of guanylate cyclase activity [8]: 10 nM

Reference: patent US20060205642A1, “Oral methods of treatment using proANF peptides” (priority 2005, published 2006)
